Assay results: ChEMBL document CHEMBL4382294, “Synthesis of a 6-Aza-Isoindolinone-Based Inhibitor of Phosphoinositide 3-Kinase γ via Ruthenium-Catalyzed [2 + 2 + 2] Cyclotrimerization” (ACS Med Chem Lett, 2019)

What was measured:
Homo sapiens [1] = species on record: Homo sapiens; assay: Selectivity ratio of IC50 for PI3Kbeta (unknown origin) to IC50 for PI3Kgamma (unknown origin)
[2] = biological target: T1, Phosphatidylinositol 4,5-bisphosphate 3-kinase catalytic subunit gamma isoform (Homo sapiens, UniProt P48736); assay: Inhibition of PI3Kgamma in human THP1 cells assessed as reduction in MCP1-induced Akt phosphorylation at Thr308/Ser473 residue preincubated for 1 hr followed by MCP1 stimulation for 3 mins by FACS analysis; assay type: cell-based
T1 sequence (P48736 whole entry, canonical isoform): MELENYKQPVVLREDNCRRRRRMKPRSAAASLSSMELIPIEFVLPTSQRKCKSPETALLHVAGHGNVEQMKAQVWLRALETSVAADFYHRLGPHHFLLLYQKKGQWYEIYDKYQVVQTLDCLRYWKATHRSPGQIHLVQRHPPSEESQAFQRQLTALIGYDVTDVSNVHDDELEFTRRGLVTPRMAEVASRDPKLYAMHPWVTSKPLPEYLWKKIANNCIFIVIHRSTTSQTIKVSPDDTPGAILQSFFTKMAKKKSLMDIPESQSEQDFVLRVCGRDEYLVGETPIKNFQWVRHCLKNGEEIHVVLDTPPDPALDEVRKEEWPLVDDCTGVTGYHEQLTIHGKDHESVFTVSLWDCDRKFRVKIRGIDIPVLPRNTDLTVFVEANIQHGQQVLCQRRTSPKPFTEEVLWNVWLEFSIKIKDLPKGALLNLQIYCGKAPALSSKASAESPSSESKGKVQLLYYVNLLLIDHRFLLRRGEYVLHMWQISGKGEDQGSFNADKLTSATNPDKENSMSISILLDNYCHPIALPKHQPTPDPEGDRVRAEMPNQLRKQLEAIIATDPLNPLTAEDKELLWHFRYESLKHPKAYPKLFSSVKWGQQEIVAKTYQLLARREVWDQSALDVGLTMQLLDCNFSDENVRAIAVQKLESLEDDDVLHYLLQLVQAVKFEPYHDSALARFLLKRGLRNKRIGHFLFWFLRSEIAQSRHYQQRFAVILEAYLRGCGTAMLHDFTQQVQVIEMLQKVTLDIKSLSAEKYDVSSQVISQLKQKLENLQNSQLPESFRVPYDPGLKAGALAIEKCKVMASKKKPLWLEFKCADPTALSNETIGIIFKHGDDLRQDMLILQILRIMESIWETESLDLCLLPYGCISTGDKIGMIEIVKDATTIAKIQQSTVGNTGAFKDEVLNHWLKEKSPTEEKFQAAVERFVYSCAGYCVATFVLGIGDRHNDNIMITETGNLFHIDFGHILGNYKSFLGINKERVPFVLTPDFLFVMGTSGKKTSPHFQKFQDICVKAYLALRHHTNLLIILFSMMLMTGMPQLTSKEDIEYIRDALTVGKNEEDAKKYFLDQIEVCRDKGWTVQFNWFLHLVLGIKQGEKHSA

Homo sapiens [3] = species on record: Homo sapiens; assay: Selectivity ratio of IC50 for PI3Kdelta (unknown origin) to IC50 for PI3Kgamma (unknown origin)
Homo sapiens [4] = species on record: Homo sapiens; assay: Selectivity ratio of IC50 for PI3Kalpha (unknown origin) to IC50 for PI3Kgamma (unknown origin)
[5] = biological target: T1, Phosphatidylinositol 4,5-bisphosphate 3-kinase catalytic subunit gamma isoform; assay: Inhibition of PI3Kgamma (unknown origin) using PIP2 as substrate measured after 15 mins in presence of [33P]ATP by scintillation counting method

Ratio IC50 (Homo sapiens [1])	IC50 [2] [nM]	Ratio IC50 (Homo sapiens [3])	Ratio IC50 (Homo sapiens [4])	Ki [5] [nM]	Compound
31	47	13	65		COc1cc(-c2ccc3c(n2)CN(c2cnn(CC(F)(F)F)c2)C3=O)cnc1OC
8	270	6	15	14	COc1cc(-c2cc3c(c(C)n2)C(=O)N(c2cnn(CC(F)(F)F)c2)C3)cnc1OC
